From ChEMBL document CHEMBL4507303, “Data for DCP probe TP-004” (2021)

Columns and labels:
[1] = system: Tyrosine-protein kinase ABL1 (Homo sapiens), P00519 [M351T]; conditions: Compound concentration 1000.0 nM
[2] = target: Macrophage-stimulating protein receptor (Homo sapiens) (UniProt Q04912); conditions: Compound concentration 1000.0 nM
[3] = target: MAP/microtubule affinity-regulating kinase 4 (Homo sapiens) (UniProt Q96L34); conditions: Compound concentration 1000.0 nM
[4] = system: Phosphatidylinositol 4,5-bisphosphate 3-kinase catalytic subunit alpha isoform (Homo sapiens), P42336 [E542K]; conditions: Compound concentration 1000.0 nM
[5] = target: Focal adhesion kinase 1 (Homo sapiens) (UniProt Q05397); conditions: Compound concentration 1000.0 nM
[6] = target: Tyrosine-protein kinase Fes/Fps (Homo sapiens) (UniProt P07332); conditions: Compound concentration 1000.0 nM
[7] = target: Tyrosine-protein kinase CSK (Homo sapiens) (UniProt P41240); conditions: Compound concentration 1000.0 nM
[8] = system: Tyrosine-protein kinase ABL1 (Homo sapiens), P00519 [E255K]; conditions: Compound concentration 1000.0 nM
[9] = target: Aurora kinase C (Homo sapiens) (UniProt Q9UQB9); conditions: Compound concentration 1000.0 nM
[10] = target: Serine/threonine-protein kinase LATS2 (Homo sapiens) (UniProt Q9NRM7); conditions: Compound concentration 1000.0 nM
[11] = target: Ribosomal protein S6 kinase alpha-2 (Homo sapiens) (UniProt Q15349); conditions: Compound concentration 1000.0 nM
[12] = target: Serine/threonine-protein kinase Nek7 (Homo sapiens) (UniProt Q8TDX7); conditions: Compound concentration 1000.0 nM
[13] = target: 5-hydroxytryptamine receptor 1E (Homo sapiens) (UniProt P28566); conditions: Compound concentration 10.0 uM
[14] = target: Membrane-associated tyrosine- and threonine-specific cdc2-inhibitory kinase (Homo sapiens) (UniProt Q99640); conditions: Compound concentration 1000.0 nM
[15] = target: Dual specificity mitogen-activated protein kinase kinase 5 (Homo sapiens) (UniProt Q13163); conditions: Compound concentration 1000.0 nM
[16] = target: Mitogen-activated protein kinase kinase kinase kinase 3 (Homo sapiens) (UniProt Q8IVH8); conditions: Compound concentration 1000.0 nM
[17] = system: Phosphatidylinositol 4,5-bisphosphate 3-kinase catalytic subunit alpha isoform (Homo sapiens), P42336 [I800L]; conditions: Compound concentration 1000.0 nM
[18] = target: Rhodopsin kinase GRK1 (Homo sapiens) (UniProt Q15835); conditions: Compound concentration 1000.0 nM
[19] = target: NUAK family SNF1-like kinase 1 (Homo sapiens) (UniProt O60285); conditions: Compound concentration 1000.0 nM
[20] = target: Receptor-interacting serine/threonine-protein kinase 2 (Homo sapiens) (UniProt O43353); conditions: Compound concentration 1000.0 nM
[21] = target: Activin receptor type-1-like (Homo sapiens) (UniProt P37023); conditions: Compound concentration 1000.0 nM
[22] = system: Tyrosine-protein kinase ABL1 (Homo sapiens), P00519 [T315I]; conditions: Compound concentration 1000.0 nM
[23] = target: Sigma non-opioid intracellular receptor 1 (Homo sapiens) (UniProt Q99720); conditions: Compound concentration 10.0 uM
[24] = target: Serine/threonine-protein kinase 38-like (Homo sapiens) (UniProt Q9Y2H1); conditions: Compound concentration 1000.0 nM
[25] = target: Testis-specific serine/threonine-protein kinase 1 (Homo sapiens) (UniProt Q9BXA7); conditions: Compound concentration 1000.0 nM
[26] = target: Ribosomal protein S6 kinase beta-1 (Homo sapiens) (UniProt P23443); conditions: Compound concentration 1000.0 nM
[27] = target: Serine/threonine-protein kinase OSR1 (Homo sapiens) (UniProt O95747); conditions: Compound concentration 1000.0 nM
[28] = target: Cyclin-dependent kinase 17 (Homo sapiens) (UniProt Q00537); conditions: Compound concentration 1000.0 nM
[29] = target: Myosin light chain kinase (Homo sapiens) (UniProt Q32MK0); conditions: Compound concentration 1000.0 nM
[30] = target: MAP kinase-interacting serine/threonine-protein kinase 2 (Homo sapiens) (UniProt Q9HBH9); conditions: Compound concentration 1000.0 nM
[31] = target: Serine/threonine-protein kinase 35 (Homo sapiens) (UniProt Q8TDR2); conditions: Compound concentration 1000.0 nM
[32] = target: Receptor-type tyrosine-protein kinase FLT3 (Homo sapiens) (UniProt P36888); conditions: Compound concentration 1000.0 nM
[33] = target: Serine/threonine-protein kinase PAK 4 (Homo sapiens) (UniProt O96013); conditions: Compound concentration 1000.0 nM
[34] = target: Tyrosine-protein kinase ABL2 (Homo sapiens) (UniProt P42684); conditions: Compound concentration 1000.0 nM
[35] = target: Muscarinic acetylcholine receptor M3 (Homo sapiens) (UniProt P20309); conditions: Compound concentration 10.0 uM
[36] = target: Mitogen-activated protein kinase kinase kinase 4 (Homo sapiens) (UniProt Q9Y6R4); conditions: Compound concentration 1000.0 nM
[37] = target: Homeodomain-interacting protein kinase 4 (Homo sapiens) (UniProt Q8NE63); conditions: Compound concentration 1000.0 nM
[38] = target: Tyrosine-protein kinase Fyn (Homo sapiens) (UniProt P06241); conditions: Compound concentration 1000.0 nM
[39] = target: Serine/threonine-protein kinase LATS1 (Homo sapiens) (UniProt O95835); conditions: Compound concentration 1000.0 nM
[40] = target: Sigma intracellular receptor 2 (Homo sapiens) (UniProt Q5BJF2); conditions: Compound concentration 10.0 uM
[41] = target: Insulin receptor (Homo sapiens) (UniProt P06213); conditions: Compound concentration 1000.0 nM
[42] = target: Interferon-induced, double-stranded RNA-activated protein kinase (Homo sapiens) (UniProt P19525); conditions: Compound concentration 1000.0 nM
[43] = target: Serine/threonine-protein kinase Nek4 (Homo sapiens) (UniProt P51957); conditions: Compound concentration 1000.0 nM
[44] = target: Serine/threonine-protein kinase 32B (Homo sapiens) (UniProt Q9NY57); conditions: Compound concentration 1000.0 nM
[45] = system: Phosphatidylinositol 4,5-bisphosphate 3-kinase catalytic subunit alpha isoform (Homo sapiens), P42336 [Q546K]; conditions: Compound concentration 1000.0 nM

Sequence of Tyrosine-protein kinase ABL2 (Homo sapiens) (P42684 whole entry): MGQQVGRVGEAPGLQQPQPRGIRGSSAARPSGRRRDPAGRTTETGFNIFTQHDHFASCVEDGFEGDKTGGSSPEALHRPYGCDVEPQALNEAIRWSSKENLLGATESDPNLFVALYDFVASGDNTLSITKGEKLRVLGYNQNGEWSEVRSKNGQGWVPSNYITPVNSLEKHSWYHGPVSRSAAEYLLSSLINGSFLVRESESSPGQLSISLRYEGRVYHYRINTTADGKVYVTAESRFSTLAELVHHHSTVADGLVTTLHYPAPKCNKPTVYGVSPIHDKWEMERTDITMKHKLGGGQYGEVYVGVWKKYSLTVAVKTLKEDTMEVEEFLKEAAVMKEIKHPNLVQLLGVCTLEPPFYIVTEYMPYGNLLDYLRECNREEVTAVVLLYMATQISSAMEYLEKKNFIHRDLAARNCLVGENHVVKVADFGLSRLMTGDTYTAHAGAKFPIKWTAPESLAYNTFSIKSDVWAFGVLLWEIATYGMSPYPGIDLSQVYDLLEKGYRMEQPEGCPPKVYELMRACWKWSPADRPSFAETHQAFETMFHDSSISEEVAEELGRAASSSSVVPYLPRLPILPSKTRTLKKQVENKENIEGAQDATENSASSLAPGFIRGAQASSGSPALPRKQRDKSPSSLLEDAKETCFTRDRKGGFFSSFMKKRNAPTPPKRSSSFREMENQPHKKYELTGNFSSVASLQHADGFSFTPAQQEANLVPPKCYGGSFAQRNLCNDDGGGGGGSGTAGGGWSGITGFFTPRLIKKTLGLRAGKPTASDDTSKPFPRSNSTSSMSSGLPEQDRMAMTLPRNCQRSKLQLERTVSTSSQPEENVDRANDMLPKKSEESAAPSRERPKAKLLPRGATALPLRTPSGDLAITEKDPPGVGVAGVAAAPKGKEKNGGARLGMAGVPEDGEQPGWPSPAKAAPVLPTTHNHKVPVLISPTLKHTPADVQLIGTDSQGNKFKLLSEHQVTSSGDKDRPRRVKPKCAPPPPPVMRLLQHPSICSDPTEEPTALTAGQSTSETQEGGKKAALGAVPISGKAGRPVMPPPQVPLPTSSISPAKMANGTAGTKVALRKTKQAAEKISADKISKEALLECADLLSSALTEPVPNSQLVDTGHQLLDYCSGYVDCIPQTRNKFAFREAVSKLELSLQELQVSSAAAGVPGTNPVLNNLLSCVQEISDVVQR
Sequence of Sigma non-opioid intracellular receptor 1 (Homo sapiens) (Q99720 whole entry): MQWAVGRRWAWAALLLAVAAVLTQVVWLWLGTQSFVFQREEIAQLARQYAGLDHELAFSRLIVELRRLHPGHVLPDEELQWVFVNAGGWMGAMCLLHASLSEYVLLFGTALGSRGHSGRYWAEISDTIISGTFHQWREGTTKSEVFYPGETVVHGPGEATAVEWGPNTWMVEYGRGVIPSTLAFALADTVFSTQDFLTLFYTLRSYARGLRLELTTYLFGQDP
Sequence of Serine/threonine-protein kinase PAK 4 (Homo sapiens) (O96013 whole entry, looked up): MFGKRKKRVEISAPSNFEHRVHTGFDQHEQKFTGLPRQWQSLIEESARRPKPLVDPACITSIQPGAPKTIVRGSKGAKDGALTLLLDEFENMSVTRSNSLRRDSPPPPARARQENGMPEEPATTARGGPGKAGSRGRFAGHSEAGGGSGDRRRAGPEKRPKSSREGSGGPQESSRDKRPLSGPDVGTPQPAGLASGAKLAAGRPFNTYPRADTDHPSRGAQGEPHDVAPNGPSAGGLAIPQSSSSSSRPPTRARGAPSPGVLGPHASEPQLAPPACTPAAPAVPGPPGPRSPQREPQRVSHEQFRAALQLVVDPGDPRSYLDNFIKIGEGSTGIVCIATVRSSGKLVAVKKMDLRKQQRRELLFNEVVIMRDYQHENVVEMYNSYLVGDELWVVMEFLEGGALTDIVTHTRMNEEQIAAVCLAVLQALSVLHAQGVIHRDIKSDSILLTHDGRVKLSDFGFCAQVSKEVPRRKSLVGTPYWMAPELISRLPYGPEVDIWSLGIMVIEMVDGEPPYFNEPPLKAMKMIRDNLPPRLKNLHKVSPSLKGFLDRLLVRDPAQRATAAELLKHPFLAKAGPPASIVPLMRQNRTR
Sequence of Myosin light chain kinase (Homo sapiens) (Q32MK0 whole entry): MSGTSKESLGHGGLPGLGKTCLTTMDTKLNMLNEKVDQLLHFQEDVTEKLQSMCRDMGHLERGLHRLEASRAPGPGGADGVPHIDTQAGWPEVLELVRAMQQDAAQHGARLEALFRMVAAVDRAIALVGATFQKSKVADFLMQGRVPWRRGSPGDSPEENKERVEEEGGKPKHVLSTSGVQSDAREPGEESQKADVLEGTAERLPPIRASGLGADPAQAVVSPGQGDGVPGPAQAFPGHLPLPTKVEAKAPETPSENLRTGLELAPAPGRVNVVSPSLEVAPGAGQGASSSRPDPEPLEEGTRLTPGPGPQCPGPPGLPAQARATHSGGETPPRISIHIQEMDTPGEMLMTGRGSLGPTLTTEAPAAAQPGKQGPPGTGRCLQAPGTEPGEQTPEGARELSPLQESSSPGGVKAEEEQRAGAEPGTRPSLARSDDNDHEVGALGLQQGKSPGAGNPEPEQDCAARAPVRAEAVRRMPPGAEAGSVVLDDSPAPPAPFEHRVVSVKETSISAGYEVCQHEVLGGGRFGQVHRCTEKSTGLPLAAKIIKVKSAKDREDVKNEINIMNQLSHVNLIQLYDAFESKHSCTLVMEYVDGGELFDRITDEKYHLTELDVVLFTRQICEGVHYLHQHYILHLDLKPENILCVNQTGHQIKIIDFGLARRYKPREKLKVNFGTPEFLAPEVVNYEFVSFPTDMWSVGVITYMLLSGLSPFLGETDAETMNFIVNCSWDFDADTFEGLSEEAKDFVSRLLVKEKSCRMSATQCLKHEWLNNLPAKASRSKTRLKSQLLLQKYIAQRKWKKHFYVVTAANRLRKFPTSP
Sequence of Ribosomal protein S6 kinase beta-1 (Homo sapiens) (P23443 whole entry, looked up): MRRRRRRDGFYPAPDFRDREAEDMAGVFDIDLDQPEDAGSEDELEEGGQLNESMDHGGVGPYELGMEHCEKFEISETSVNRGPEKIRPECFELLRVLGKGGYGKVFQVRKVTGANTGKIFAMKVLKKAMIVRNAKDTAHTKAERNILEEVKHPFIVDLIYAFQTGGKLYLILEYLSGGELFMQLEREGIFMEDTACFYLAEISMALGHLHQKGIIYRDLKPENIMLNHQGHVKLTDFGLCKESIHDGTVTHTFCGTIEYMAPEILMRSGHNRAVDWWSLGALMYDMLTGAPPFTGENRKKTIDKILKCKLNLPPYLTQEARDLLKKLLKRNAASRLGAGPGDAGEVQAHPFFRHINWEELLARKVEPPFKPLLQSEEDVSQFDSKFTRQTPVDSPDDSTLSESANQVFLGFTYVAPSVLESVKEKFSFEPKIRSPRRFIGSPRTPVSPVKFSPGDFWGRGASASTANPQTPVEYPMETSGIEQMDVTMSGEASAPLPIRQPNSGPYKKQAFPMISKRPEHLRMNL
Sequence of Mitogen-activated protein kinase kinase kinase 4 (Homo sapiens) (Q9Y6R4 whole entry): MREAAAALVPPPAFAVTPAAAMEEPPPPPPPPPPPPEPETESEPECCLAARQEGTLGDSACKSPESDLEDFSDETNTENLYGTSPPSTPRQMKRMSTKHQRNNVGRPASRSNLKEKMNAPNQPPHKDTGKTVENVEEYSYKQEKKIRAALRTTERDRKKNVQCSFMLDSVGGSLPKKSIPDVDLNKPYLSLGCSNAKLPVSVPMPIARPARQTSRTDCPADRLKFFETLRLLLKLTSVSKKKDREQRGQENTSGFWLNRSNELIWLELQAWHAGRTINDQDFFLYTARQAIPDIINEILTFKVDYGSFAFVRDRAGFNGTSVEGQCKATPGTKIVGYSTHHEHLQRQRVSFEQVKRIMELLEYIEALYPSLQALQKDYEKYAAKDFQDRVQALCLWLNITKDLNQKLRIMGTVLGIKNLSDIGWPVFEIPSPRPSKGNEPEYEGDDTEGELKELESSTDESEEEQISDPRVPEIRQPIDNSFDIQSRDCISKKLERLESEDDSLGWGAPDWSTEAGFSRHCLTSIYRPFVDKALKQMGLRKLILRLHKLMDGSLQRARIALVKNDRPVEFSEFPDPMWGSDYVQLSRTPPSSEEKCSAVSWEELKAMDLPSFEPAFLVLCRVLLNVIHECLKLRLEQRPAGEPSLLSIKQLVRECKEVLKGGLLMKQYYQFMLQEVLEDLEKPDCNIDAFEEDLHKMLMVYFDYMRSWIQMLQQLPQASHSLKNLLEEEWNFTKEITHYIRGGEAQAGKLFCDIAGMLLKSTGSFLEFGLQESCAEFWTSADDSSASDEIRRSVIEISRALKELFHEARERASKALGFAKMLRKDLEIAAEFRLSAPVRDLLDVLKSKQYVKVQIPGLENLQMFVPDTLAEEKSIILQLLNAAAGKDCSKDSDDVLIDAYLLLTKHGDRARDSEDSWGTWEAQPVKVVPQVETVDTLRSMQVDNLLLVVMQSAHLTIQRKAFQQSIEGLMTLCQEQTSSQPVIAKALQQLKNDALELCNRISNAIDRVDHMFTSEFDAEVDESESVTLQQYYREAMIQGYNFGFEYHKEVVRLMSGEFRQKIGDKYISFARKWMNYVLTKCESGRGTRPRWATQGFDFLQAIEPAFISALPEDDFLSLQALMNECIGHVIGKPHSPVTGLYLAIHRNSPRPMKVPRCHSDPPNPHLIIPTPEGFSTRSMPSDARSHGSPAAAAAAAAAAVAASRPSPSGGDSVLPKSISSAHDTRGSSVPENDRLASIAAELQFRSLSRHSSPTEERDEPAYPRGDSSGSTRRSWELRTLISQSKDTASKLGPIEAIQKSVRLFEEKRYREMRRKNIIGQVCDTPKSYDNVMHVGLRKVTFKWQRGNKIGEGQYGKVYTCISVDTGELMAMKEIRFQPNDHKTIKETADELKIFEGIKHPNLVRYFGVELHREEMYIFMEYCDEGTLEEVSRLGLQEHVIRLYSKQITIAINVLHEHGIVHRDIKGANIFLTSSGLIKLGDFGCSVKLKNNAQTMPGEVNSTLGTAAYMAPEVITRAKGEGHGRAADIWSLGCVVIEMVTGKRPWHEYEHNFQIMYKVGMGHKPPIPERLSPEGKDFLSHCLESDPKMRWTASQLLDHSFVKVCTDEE

Cc1nc(N2CC[C@@H](O)C2)ncc1-c1cc(C(F)(F)F)cc2[nH]ncc12 [TP-004]
inactive: residual activity [1] 72% | residual activity [2] 100% | residual activity [3] 80% | residual activity [4] 52% | residual activity [5] 86% | residual activity [6] 100% | residual activity [7] 100% | residual activity [8] 77% | residual activity [9] 100% | residual activity [11] 100% | residual activity [12] 97% | inhibition [13] -5.65% | residual activity [14] 100% | residual activity [15] 68% | residual activity [16] 100% | residual activity [17] 66% | residual activity [18] 52% | residual activity [19] 83% | residual activity [20] 95% | residual activity [21] 100% | residual activity [22] 69% | inhibition [23] 45.5% | residual activity [24] 87% | residual activity [25] 98% | residual activity [26] 90% | residual activity [27] 67% | residual activity [28] 91% | residual activity [29] 98% | residual activity [30] 76% | residual activity [31] 100% | residual activity [32] 87% | residual activity [33] 100% | residual activity [34] 60% | inhibition [35] -2.13% | residual activity [36] 100% | residual activity [37] 82% | residual activity [38] 100% | residual activity [39] 81% | inhibition [40] 45.5% | residual activity [41] 100% | residual activity [42] 100% | residual activity [43] 81% | residual activity [44] 100% | residual activity [45] 82%
active: residual activity [10] 26%
